What was measured:
[1] = target: T1, Alpha-1A adrenergic receptor (Rattus norvegicus, UniProt P43140); assay: DRUGMATRIX: Alpha-1A adrenergic receptor radioligand binding (ligand: prazosin); format: cell membranes, Wistar, Submaxillary gland, Membrane; conditions: Not Active = under 50% inhibition at 10 µM
T1 sequence (P43140 whole entry): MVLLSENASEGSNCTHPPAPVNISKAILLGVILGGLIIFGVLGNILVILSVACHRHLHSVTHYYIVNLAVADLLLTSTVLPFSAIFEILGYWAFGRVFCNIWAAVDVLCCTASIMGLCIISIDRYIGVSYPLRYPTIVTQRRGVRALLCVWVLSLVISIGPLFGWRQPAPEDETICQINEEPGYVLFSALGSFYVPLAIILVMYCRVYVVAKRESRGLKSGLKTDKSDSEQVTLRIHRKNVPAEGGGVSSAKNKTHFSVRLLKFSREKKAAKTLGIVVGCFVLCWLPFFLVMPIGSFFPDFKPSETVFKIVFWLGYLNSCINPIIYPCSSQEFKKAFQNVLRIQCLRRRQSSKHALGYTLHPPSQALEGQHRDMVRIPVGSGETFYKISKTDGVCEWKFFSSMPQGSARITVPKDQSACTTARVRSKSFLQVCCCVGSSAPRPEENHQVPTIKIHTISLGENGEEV

[2] = DRUGMATRIX: Nicotinic Acetylcholine radioligand binding (ligand: [125I] Epibatidine); format: cell membranes, Membrane; conditions: imr-32; Not Active = under 50% inhibition at 10 µM
Progesterone receptor = target: T2, Progesterone receptor (Bos taurus, UniProt Q690N0); assay: DRUGMATRIX: Progesterone radioligand binding (ligand: [3H] R-5020); format: tissue-based, Uterus; conditions: Not Active = under 50% inhibition at 10 µM
T2 sequence (Q690N0 whole entry): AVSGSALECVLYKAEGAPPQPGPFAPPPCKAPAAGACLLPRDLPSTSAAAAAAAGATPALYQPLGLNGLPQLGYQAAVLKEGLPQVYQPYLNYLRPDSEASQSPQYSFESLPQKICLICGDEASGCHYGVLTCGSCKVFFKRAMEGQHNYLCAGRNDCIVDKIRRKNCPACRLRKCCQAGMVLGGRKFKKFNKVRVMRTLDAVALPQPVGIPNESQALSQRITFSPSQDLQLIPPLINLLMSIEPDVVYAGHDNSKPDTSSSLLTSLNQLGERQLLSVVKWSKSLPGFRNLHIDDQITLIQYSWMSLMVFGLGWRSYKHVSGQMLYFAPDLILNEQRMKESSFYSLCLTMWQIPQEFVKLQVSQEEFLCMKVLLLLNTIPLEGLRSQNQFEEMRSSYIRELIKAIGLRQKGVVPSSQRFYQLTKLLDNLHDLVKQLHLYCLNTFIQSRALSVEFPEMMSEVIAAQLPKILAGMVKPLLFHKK

Cathepsin G = target: T3, Cathepsin G (Homo sapiens, UniProt P08311); format: tissue-based; conditions: neutrophil;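 also: inhibition of Cathepsin G enzyme activity, tested on an AMC-conjugated peptide substrate; in other assays of this panel Not Active means under 50% inhibition at 10 µM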
T3 sequence (P08311 whole entry): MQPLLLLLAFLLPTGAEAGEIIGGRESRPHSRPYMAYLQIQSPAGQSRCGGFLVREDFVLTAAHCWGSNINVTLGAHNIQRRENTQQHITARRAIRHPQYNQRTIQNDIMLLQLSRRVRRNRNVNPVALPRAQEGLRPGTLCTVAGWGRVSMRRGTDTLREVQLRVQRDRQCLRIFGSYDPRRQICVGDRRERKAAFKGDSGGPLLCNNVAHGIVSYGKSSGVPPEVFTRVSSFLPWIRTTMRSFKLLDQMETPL

[3] = target: Matrix metalloproteinase-9 (Homo sapiens, UniProt P14780); assay: biochemical; format: cell-based;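 also: inhibition of isolated MMP-9 enzyme activity toward a synthetic peptide substrate, from the DrugMatrix protease screening panel; in other assays of this panel Not Active means under 50% inhibition at 10 µM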
[4] = target: Protein kinase C alpha type (Homo sapiens, UniProt P17252); format: cell-based; conditions: sf9;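 also: inhibition of PKCalpha kinase activity measured in an enzyme assay with histone as the phosphorylation substrate; in other assays of this panel Not Active means under 50% inhibition at 10 µM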

Chain of Matrix metalloproteinase-9 (P14780 whole entry): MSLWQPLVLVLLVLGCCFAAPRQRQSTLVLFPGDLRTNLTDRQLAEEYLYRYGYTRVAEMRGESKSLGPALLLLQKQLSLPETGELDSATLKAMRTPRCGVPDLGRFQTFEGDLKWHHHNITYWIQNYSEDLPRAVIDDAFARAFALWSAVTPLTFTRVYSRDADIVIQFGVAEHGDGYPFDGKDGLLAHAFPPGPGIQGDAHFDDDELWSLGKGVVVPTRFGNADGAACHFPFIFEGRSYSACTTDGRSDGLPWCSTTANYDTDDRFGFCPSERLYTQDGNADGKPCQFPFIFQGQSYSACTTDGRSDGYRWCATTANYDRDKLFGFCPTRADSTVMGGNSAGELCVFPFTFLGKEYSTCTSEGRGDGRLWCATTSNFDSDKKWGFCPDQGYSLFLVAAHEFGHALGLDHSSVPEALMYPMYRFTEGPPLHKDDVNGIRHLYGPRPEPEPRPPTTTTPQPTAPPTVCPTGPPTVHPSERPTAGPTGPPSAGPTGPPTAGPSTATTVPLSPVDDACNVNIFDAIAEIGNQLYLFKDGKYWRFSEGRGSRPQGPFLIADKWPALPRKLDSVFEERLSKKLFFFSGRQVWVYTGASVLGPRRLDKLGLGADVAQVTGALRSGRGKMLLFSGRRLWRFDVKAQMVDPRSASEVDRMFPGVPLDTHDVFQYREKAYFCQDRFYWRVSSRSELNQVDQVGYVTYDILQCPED

Compound	IC50 [1]	IC50 [2]	Ki [2]	IC50 (Progesterone receptor)	IC50 (Cathepsin G)	IC50 [3]	IC50 [4]	IC50 (Progesterone receptor; read-out: IC50)	Ki (Progesterone receptor; read-out: Ki)	IC50 ([1]; read-out: IC50)	Ki ([1]; read-out: Ki)	Ki [1]	Ki (Progesterone receptor)	Ki (Cathepsin G)	Ki [3]	Ki [4]	IC50 (Cathepsin G; read-out: IC50)
N=C(N)NCCN1CCCCCCC1 [GUANETHIDINE]	Not Active	Not Active	Not Active	Not Active	Not Active	Not Active	Not Active										
CC1(C)O[C@@H]2C[C@H]3[C@@H]4CCC5=CC(=O)CC[C@]5(C)[C@@]4(F)[C@@H](O)C[C@]3(C)[C@]2(C(=O)CCl)O1 [HALCINONIDE]	Not Active	Not Active	Not Active		Not Active	Not Active	Not Active	0.00093 µM	0.000121 µM								
O=c1[nH]c(=O)n([C@H]2C[C@H](O)[C@@H](CO)O2)cc1I [IDOXURIDINE]	Not Active	Not Active	Not Active	Not Active	Not Active	Not Active	Not Active										
CC1Cc2ccccc2N1NC(=O)c1ccc(Cl)c(S(N)(=O)=O)c1 (configuration not stated) [INDAPAMIDE]	Not Active	Not Active	Not Active	Not Active	Not Active	Not Active	Not Active										
Nc1nc(N)nc(-c2cc(Cl)ccc2Cl)n1.O=C(O)/C=C\C(=O)O [IRSOGLADINE MALEATE]	Not Active	Not Active	Not Active	Not Active	Not Active	Not Active	Not Active										
CCC(C)n1ncn(-c2ccc(N3CCN(c4ccc(OCC5COC(Cn6cncn6)(c6ccc(Cl)cc6Cl)O5)cc4)CC3)cc2)c1=O (configuration not stated) [ITRACONAZOLE]	Not Active	Not Active	Not Active	Not Active	Not Active	Not Active	Not Active										
CCCCN1CCCC[C@H]1C(=O)Nc1c(C)cccc1C [LEVOBUPIVACAINE]	Not Active	Not Active	Not Active	Not Active	Not Active	Not Active	Not Active										
CCCCc1nc(Cl)c(CO)n1Cc1ccc(-c2ccccc2-c2nnn[nH]2)cc1 [LOSARTAN]	Not Active	Not Active	Not Active	Not Active	Not Active	Not Active	Not Active										
Sc1ncnc2nc[nH]c12 [MERCAPTOPURINE ANHYDROUS]	Not Active	Not Active	Not Active	Not Active	Not Active	Not Active	Not Active										
C[C@](N)(Cc1ccc(O)c(O)c1)C(=O)O [METHYLDOPA]	Not Active	Not Active	Not Active	Not Active	Not Active	Not Active	Not Active										
C[C@]12CCC(=O)C=C1CC[C@@H]1[C@@H]2CC[C@@]2(C)[C@H]1CC[C@]2(C)O [METHYLTESTOSTERONE]	Not Active	Not Active	Not Active		Not Active	Not Active	Not Active	0.251 µM	0.033 µM								
Cc1ccccc1N1C(=O)c2cc(S(N)(=O)=O)c(Cl)cc2NC1C (configuration not stated) [METOLAZONE]	Not Active	Not Active	Not Active	Not Active	Not Active	Not Active	Not Active										
COCCc1ccc(OCC(O)CNC(C)C)cc1 (configuration not stated) [METOPROLOL]	Not Active	Not Active	Not Active	Not Active	Not Active	Not Active	Not Active										
CCn1cc(C(=O)O)c(=O)c2cc(F)c(N3CCNCC3)cc21 [NORFLOXACIN]	Not Active	Not Active	Not Active	Not Active	Not Active	Not Active	Not Active										
NC1=NC(=O)C(c2ccccc2)O1 (configuration not stated) [PEMOLINE]	Not Active	Not Active	Not Active	Not Active	Not Active	Not Active	Not Active										
Nc1nc2c(ncn2CCC(CO)CO)c(=O)[nH]1 [PENCICLOVIR]	Not Active	Not Active	Not Active	Not Active	Not Active	Not Active	Not Active										
C=C(C)C1(O)OC(=O)C=C1OC (configuration not stated) [PENICILLIC ACID]	Not Active	Not Active	Not Active	Not Active	Not Active	Not Active	Not Active										
CC1(C)S[C@@H]2[C@H](NC(=O)Cc3ccccc3)C(=O)N2[C@H]1C(=O)O [PENICILLIN G]	Not Active	Not Active	Not Active	Not Active	Not Active	Not Active	Not Active										
CCCN1C[C@H](CSC)C[C@@H]2c3cccc4[nH]cc(c34)C[C@H]21 [PERGOLIDE]		Not Active	Not Active	Not Active	Not Active	Not Active	Not Active			1.93 µM	0.781 µM						
C1CCC(C(CC2CCCCN2)C2CCCCC2)CC1 (configuration not stated) [PERHEXILINE]	Not Active	Not Active	Not Active	Not Active	Not Active	Not Active	Not Active										
CCOc1ccc(NC(C)=O)cc1 [PHENACETIN]	Not Active	Not Active	Not Active	Not Active	Not Active	Not Active	Not Active										
CNNCc1ccc(C(=O)NC(C)C)cc1 [PROCARBAZINE]	Not Active	Not Active	Not Active	Not Active	Not Active	Not Active	Not Active										
CN(C)CCCN1c2ccccc2Sc2ccccc21 [PROMAZINE]		Not Active	Not Active	Not Active	Not Active	Not Active	Not Active			0.00924 µM	0.00374 µM						
CC(O)CO (configuration not stated) [PROPYLENE GLYCOL]	Not Active	Not Active	Not Active	Not Active	Not Active	Not Active	Not Active										
CADMIUM ACETATE	Not Active	Not Active	Not Active	Not Active	Not Active	Not Active	Not Active					Not Active	Not Active	Not Active	Not Active	Not Active	
LEAD (II) ACETATE	Not Active	Not Active	Not Active	Not Active	Not Active	Not Active	Not Active					Not Active	Not Active	Not Active	Not Active	Not Active	
LIPOPOLYSACCHARIDE E. COLI O55:B5	Not Active	Not Active	Not Active	Not Active		Not Active	Not Active					Not Active	Not Active		Not Active	Not Active	0.852 µM

From ChEMBL document CHEMBL1909046, “DrugMatrix in vitro pharmacology data”
